Columns and labels:
Type in all cases: cell-based
Settings in all cases: 0.0625 μg/ml, 48 hours, control set as 1-fold, average of three experiments
[1] = tested on: TPH1 gene; assay: qPCR expression of TPH1 gene in SHSY5Y cells
Protocol: (§1) SHSY5Y cells were seeded in a 6-well plate (1×10^5 cells/well) and then cultured for 24 hours. Thereafter, cells were divided into the control group and experimental group and were separately cultured in the following medium for 48 hours: • 1. Control group: DMEM medium; • 2. Experimental group: a medium the same as that of the control group, but additionally added with 0.0625 μg/ml of the compound of formula (I).
(§2) Thereafter, cells of the above groups were harvested and subjected to an RNA extraction with an RNA Extract Kit. The RNA thus obtained was then transcribed into cDNA by using a Reverse Transcriptase. Thereafter, the cDNA was subjected to a quantitative polymerase chain reaction (qPCR) by using a Step One Plus system and a KAPA SYBR FAST qPCR kit to determine the expression levels of genes related to melatonin (including TPH1, DDC, AANAT and ASMTL) in the cells of each group.
(§3) The above experimental steps were repeated three times, and then the results of the three experiments were averaged. Thereafter, the result of the control group was used as a basis (i.e., the gene expression level of the control group was set as 1-fold) to calculate the relative gene expression level of the experimental group.

[2] = tested on: DDC gene; assay: qPCR expression of DDC gene in SHSY5Y cells
Protocol: as §1, §2, §3

[3] = tested on: AANAT gene; assay: qPCR expression of AANAT gene in SHSY5Y cells
Protocol: as §1, §2, §3

[4] = tested on: ASMTL gene; assay: qPCR expression of ASMTL gene in SHSY5Y cells
Protocol: as §1, §2, §3

O=C1C(O)=Cc2cccc3ccc(-c4ccc(O)cc4)c1c23 [compound of formula (I), hydroxyanigorufone]
significantly increased: expression level of TPH1 gene relative to control group [1] | expression level of DDC gene relative to control group [2] | expression level of AANAT gene relative to control group [3] | expression level of ASMTL gene relative to control group [4]

Reference: patent publication US10646455B2, “Uses of hydroxyanigorufone” (TCI CO., LTD, priority 2017, dated 2020)
